Where a name gives a salt, the structure may show the parent alone. Read-outs that look alike come from different tables or passages of the source.
Key:
[1] = molecular target: T1, SARS-CoV-2 PLpro (nsp3 1564–1878) (Severe acute respiratory syndrome coronavirus 2, UniProt P0DTD1); experiment: biochemical; parameters: FRET-quenched peptide (Pro3) cleavage by PLpro, 10 min pre-incubation, slope over 20 min, normalised to no-compound control; details: low concentration screen, read-out: % of control remaining
[2] = molecular target: T1, SARS-CoV-2 PLpro (nsp3 1564–1878); experiment: biochemical; parameters: FRET-quenched peptide (Pro3) cleavage by PLpro, 10 min pre-incubation, slope over 20 min, normalised to no-compound control; details: high concentration screen, read-out: % of control remaining

Q: With `CN1[C@@H]2CC[C@H]1C[C@@H](OC(=O)C(CO)c1ccccc1)C2` (some centres unmarked) [Atropine] as the molecule, how does the remaining activity at 1.25 µM ([1]; Well no.=1552) read?
A: 100%

Q: How did the remaining activity at 1.25 µM ([1]; Well no.=6175) turn out when `CC(C)[N+]1(C)[C@@H]2CC[C@H]1C[C@@H](OC(=O)C(CO)c1ccccc1)C2` (some centres unmarked) [Ipratropium (bromide)] was run?
A: 100%

Q: Which remaining activity at 3.75 µM ([2]; Well no.=399) does the source give for `COc1ccc([C@@H]2Sc3ccccc3N(CCN(C)C)C(=O)[C@@H]2OC(C)=O)cc1` [Diltiazem hydrochloride] here?
A: 103%

Q: How did the remaining activity at 3.75 µM ([2]; Well no.=2179) turn out when `O=C1CC2(CCCC2)CC(=O)N1CCCCN1CCN(c2ncccn2)CC1` [Buspirone] was run?
A: 105%

Q: How did the remaining activity at 3.75 µM ([2]; Well no.=1388) turn out when `Cc1cccc(C)c1NC1=NCCCS1` [Xylazine hydrochloride] was run?
A: 98.8%

Q: How did the remaining activity at 1.25 µM ([1]; Well no.=3663) turn out when `CN(C)c1ccc(O)c2c1C[C@H]1C[C@H]3[C@H](N(C)C)C(O)=C(C(N)=O)C(=O)[C@@]3(O)C(O)=C1C2=O` was run?
A: 102%

Q: For `COc1cc(Nc2ncc3c(n2)-c2ccc(Cl)cc2C(c2c(F)cccc2OC)=NC3)ccc1C(=O)O` [MLN8237 (Alisertib)], which remaining activity at 3.75 µM ([2]; Well no.=4675) is on record?
A: 104%

Q: How did the remaining activity at 1.25 µM ([1]; Well no.=2117) turn out when `CCC1(c2ccc(N)cc2)CCC(=O)NC1=O` (racemic) [DL-Aminoglutethimide] was run?
A: 99.9%

Q: `CN1C[C@@H]2c3ccccc3Oc3ccc(Cl)cc3[C@H]2C1` (racemic) [Asenapine] was tested. Which remaining activity at 3.75 µM ([2]; Well no.=5151) did it give?
A: 105%

Q: `S=C(S)O[C@@H]1C[C@@H]2C[C@@H]1[C@H]1CCC[C@@H]21` [D609] was tested. Which remaining activity at 3.75 µM ([2]; Well no.=4133) did it give?
A: 100%

Q: `Cc1cccc2c3c(ccc12)C1=C(C(=O)C3=O)C(C)CO1` (centres unmarked) [Dihydrotanshinone] was tested. Which remaining activity at 1.25 µM ([1]; Well no.=3569) did it give?
A: 102%

Q: `Cc1cc(C(C)(C)C)c(O)c(C)c1CC1=NCCN1` [Oxymetazoline.HCl] was tested. Which remaining activity at 3.75 µM ([2]; Well no.=1683) did it give?
A: 105%

Q: Which remaining activity at 1.25 µM ([1]; Well no.=1686) does the source give for `C=CCc1ccccc1OCC(O)CNC(C)C` (centres unmarked) [Alprenolol.HCl] here?
A: 103%

Q: Which results are given for `CC1(C)[C@H](C(=O)O)N2C(=O)C[C@H]2S1(=O)=O` [Sulbactam]?
A: remaining activity at 1.25 µM ([1]; Well no.=2023): 106%; remaining activity at 1.25 µM ([1]; Well no.=7450): 101%

Q: For `Cc1nccn1CC1CCc2c(c3ccccc3n2C)C1=O` (centres unmarked) [Ondansetron (hydrochloride dihydrate)], which remaining activity at 3.75 µM ([2]; Well no.=7521) is on record?
A: 105%

Q: Which remaining activity at 1.25 µM ([1]; Well no.=6855) does the source give for `O=c1[nH]c2ccccc2n1CCN1CCN(c2cccc(C(F)(F)F)c2)CC1` [Flibanserin] here?
A: 102%

Q: Which remaining activity at 1.25 µM ([1]; Well no.=6811) does the source give for `CC(CN1c2ccccc2Sc2ccccc21)N(C)C` (centres unmarked) [Promethazine (hydrochloride)] here?
A: 99.3%

Q: With `CC1(C)C(=O)N(CCN2CCC(C(=O)c3ccc(F)cc3)CC2)c2ccccc21` [LY-310,762 hydrochloride] as the molecule, how does the remaining activity at 1.25 µM ([1]; Well no.=833) read?
A: 99.6%

Q: Which remaining activity at 1.25 µM ([1]; Well no.=124) does the source give for `CN(C)CCC(c1ccc(Cl)cc1)c1ccccn1` (racemic) here?
A: 92.9%

Q: `C[N+](C)(C)[C@@H](Cc1c[nH]c(=S)[nH]1)C(=O)[O-]` [L-Ergothioneine] was tested. Which remaining activity at 3.75 µM ([2]; Well no.=3891) did it give?
A: 100%

Q: For `Oc1cc2c(cc1O)C(c1ccccc1)CNCC2` (racemic), which remaining activity at 3.75 µM ([2]; Well no.=542) is on record?
A: 98.7%

Q: For `CN(C)CCCN1c2ccccc2CCc2ccccc21` [Imipramine.HCl], which remaining activity at 3.75 µM ([2]; Well no.=1688) is on record?
A: 102%

Q: `CCC(COC(=O)c1cc(OC)c(OC)c(OC)c1)(c1ccccc1)N(C)C` (centres unmarked) [Trimebutine (maleate)] was tested. Which remaining activity at 3.75 µM ([2]; Well no.=6655) did it give?
A: 107%

Q: How did the remaining activity at 1.25 µM ([1]; Well no.=7865) turn out when `CCN(CC)CCCC(C)Nc1nc(C)cc(Nc2ccc3nc(C)cc(N)c3c2)n1` (centres unmarked) [NSC 23766 (trihydrochloride)] was run?
A: 98.1%

Q: `CC(C)(O)c1ccccc1CC[C@@H](SCC1(CC(=O)O)CC1)c1cccc(/C=C/c2ccc3ccc(Cl)cc3n2)c1` [Montelukast] was tested. Which remaining activity at 3.75 µM ([2]; Well no.=1615) did it give?
A: 101%

Q: `Nc1[nH]nc2nc3ccccc3nc12` [NSC 693868 - 1H-Pyrazolo[3,4-b]quinoxalin-3-amine] was tested. Which remaining activity at 1.25 µM ([1]; Well no.=2476) did it give?
A: 95.5%

Q: `CC(C)NCC(O)c1ccc(O)c(O)c1` (racemic) was tested. Which remaining activity at 1.25 µM ([1]; Well no.=1107) did it give?
A: 97.8%

Q: Which remaining activity at 3.75 µM ([2]; Well no.=1786) does the source give for `CN(C)CC/C=C1/c2ccccc2COc2ccc(CC(=O)O)cc21` [Olopatadine] here?
A: 103%

Q: How did the remaining activity at 1.25 µM ([1]; Well no.=3094) turn out when `CCCCC[C@H](O)/C=C/[C@@H]1[C@@H](C/C=C\CCCC(=O)O)[C@@H](O)C[C@H]1O` [Prostaglandin F2a] was run?
A: 107%

Q: With `CN1CCN(C2Cc3ccccc3Sc3ccc(Cl)cc32)CC1` (centres unmarked) [Octoclothepin maleate salt] as the molecule, how does the remaining activity at 3.75 µM ([2]; Well no.=5506) read?
A: 108%

Q: With `CN(C)C(=O)Oc1cccc([N+](C)(C)C)c1` [Neostigmine bromide] as the molecule, how does the remaining activity at 1.25 µM ([1]; Well no.=853) read?
A: 105%

Q: Which remaining activity at 3.75 µM ([2]; Well no.=1692) does the source give for `CN1C[C@@H](NS(=O)(=O)N(C)C)C[C@@H]2c3cccc4c3c(cn4C)C[C@H]21` [Mesulergine] here?
A: 106%

Q: How did the remaining activity at 3.75 µM ([2]; Well no.=1675) turn out when `Nc1c2c(nc3ccccc13)CCCC2` [Tacrine] was run?
A: 105%

Q: With `O=C(CCCN1CCC2(CC1)C(=O)NCN2c1ccccc1)c1ccc(F)cc1` [Spiperone.HCl] as the molecule, how does the remaining activity at 3.75 µM ([2]; Well no.=1648) read?
A: 106%

Q: Which remaining activity at 3.75 µM ([2]; Well no.=1982) does the source give for `CC/C(=C(/CC)c1ccc(O)cc1)c1ccc(O)cc1` [Diethylstilbestrol] here?
A: 98.4%

Q: How did the remaining activity at 3.75 µM ([2]; Well no.=5605) turn out when `O=C(CCN1CCN(C(=O)OCc2cc(Cl)cc(Cl)c2)CC1)c1ccc2[nH]c(=O)oc2c1` [3,5-dichlorobenzyl 4-[3-oxo-3-(2-oxo-2,3-dihydro-1,3-benzoxazol-6-yl)propyl]-1-piperazinecarboxylate] was run?
A: 105%

Q: For `COC(=O)[C@H]1[C@H]2C[C@H]3c4[nH]c5ccccc5c4CCN3C[C@H]2CC[C@@H]1O` [Rauwolscine (hydrochloride)], which remaining activity at 3.75 µM ([2]; Well no.=8155) is on record?
A: 99.9%

Q: How did the remaining activity at 3.75 µM ([2]; Well no.=973) turn out when `CC(C(=O)O)c1cccc(C(=O)c2ccccc2)c1` (centres unmarked) [Ketoprofen] was run?
A: 101%

Q: What about the remaining activity at 3.75 µM ([2]; Well no.=1576) of the same molecule?
A: 98.4%

Q: With `CCCCCCCCCCCCCCCC(=O)NCCO` [Palmitoylethanolamide] as the molecule, how does the remaining activity at 3.75 µM ([2]; Well no.=900) read?
A: 106%

Q: Which remaining activity at 3.75 µM ([2]; Well no.=1695) does the source give for `C1COC(NC(C2CC2)C2CC2)=N1` [Rilmenidine phosphate] here?
A: 106%

Q: `O=C(Nc1cccc2c(=O)cc(-c3nnn[nH]3)oc12)c1ccc(OCCCCc2ccccc2)cc1` [Pranlukast (hemihydrate)] was tested. Which remaining activity at 3.75 µM ([2]; Well no.=6603) did it give?
A: 102%

Q: For `CCCC(=O)Nc1ccc(OCC(O)CNC(C)C)c(C(C)=O)c1` (centres unmarked) [Acebutolol HCl], which remaining activity at 3.75 µM ([2]; Well no.=5074) is on record?
A: 103%

Q: With `CNCC[C@H](Oc1ccc(C(F)(F)F)cc1)c1ccccc1` [S-(+)-Fluoxetine hydrochloride] as the molecule, how does the remaining activity at 3.75 µM ([2]; Well no.=753) read?
A: 99.7%

Q: With `Cc1noc(-c2ccc(-c3ccc(CC(=O)O)cc3)cc2)c1NC(=O)O[C@H](C)c1ccccc1` [AM095 (free acid)] as the molecule, how does the remaining activity at 3.75 µM ([2]; Well no.=7853) read?
A: 101%

Q: Which remaining activity at 3.75 µM ([2]; Well no.=1663) does the source give for `CN1[C@@H](CC(=O)c2ccccc2)CCC[C@H]1C[C@H](O)c1ccccc1` [Lobeline] here?
A: 103%

Q: With `O=c1cc(-c2cccc3c2Sc2ccccc2S3)oc(N2CCOCC2)c1` [ATM Kinase Inhibitor] as the molecule, how does the remaining activity at 3.75 µM ([2]; Well no.=2310) read?
A: 104%

Q: How did the remaining activity at 3.75 µM ([2]; Well no.=7231) turn out when `Oc1cc2c(cc1O)C(c1ccccc1)CNCC2` (centres unmarked) [SKF 38393 (hydrochloride)] was run?
A: 97.8%

Q: With `CC(N)(C(=O)O)c1ccc(C(=O)O)cc1` (racemic) as the molecule, how does the remaining activity at 3.75 µM ([2]; Well no.=880) read?
A: 111%

Q: With `COc1ccc(Cl)cc1NC(=O)Nc1cc(C)nc2ccccc12` [IGF-1R Inhibitor II] as the molecule, how does the remaining activity at 3.75 µM ([2]; Well no.=2451) read?
A: 104%

Q: For `Cc1ccc(C(=O)Nc2ccc(S(=O)(=O)O)c3cc(S(=O)(=O)O)cc(S(=O)(=O)O)c23)cc1NC(=O)c1cccc(NC(=O)Nc2cccc(C(=O)Nc3cc(C(=O)Nc4ccc(S(=O)(=O)O)c5cc(S(=O)(=O)O)cc(S(=O)(=O)O)c45)ccc3C)c2)c1` [Suramin hexasodium], which remaining activity at 3.75 µM ([2]; Well no.=1469) is on record?
A: 102%

Q: Which remaining activity at 3.75 µM ([2]; Well no.=1285) does the source give for `CN(C)CCCN1c2ccccc2Sc2ccc(C(F)(F)F)cc21` [Triflupromazine hydrochloride] here?
A: 105%

Source: paper PMC8286840, “Identifying SARS-CoV-2 antiviral compounds by screening for small molecule inhibitors of Nsp3 papain-like protease” (Biochemical Journal, 2021)
